Measured values published in US20040229772A1, “Peptides responsive to antibodies against consensus peptide of the CS4-CFA/I family proteins” (priority 1996, published 2004).

Tests used:
Type in all cases: binding
Antibody to CS1 = experiment: ELISA of 8-mer peptides (pins) with rabbit serum; details: a listed pin number means recognized
Method: (§1) Blocks of pins for cleavable syntheses were obtained from Chiron Mimotopes U.S. Peptide synthesis was carried out according to the manufacturer's instructions using Opfp-derivatized amino acids. Peptides of length 8 with 7 overlap were manufactured in order to locate all linear epitopes in the sequence with a highest redundancy. […] Peptides were cleaved from the pins using 0.1 M phosphate buffer, pH 8.0, containing 40% acetonitrile. Two peptides were made and sacrificed for amino acid analysis as proof of peptide purity. A dinitrophenol (DNP) pin was included so that the efficiency of the cleavage could be monitored spectrophotometrically.
(§2) For blocking, a composition containing 5% nonfat dry milk in PBS+0.2% sodium azide was used. Stock streptavidin (Calbiochem Corp., La Jolla, Calif.) at 1 mg/ml in water was kept frozen in aliquots for up to several months. On the day of use, the stock streptavidin was diluted in phosphate buffered saline (PBS) to provide a concentration of 5 μg/ml streptavidin. Goat F(ab′)2 anti-mouse, anti-rabbit and anti-human sera were labeled with alkaline phosphatase (Biosource, International, Camarillo, Calif.).
(§3) Streptavidin was plated at 5 μg/ml, 50 μl per well, and incubated over night at 4° C. Plates were then washed by hand (Nunc Immunowash 12 hand plate washer. Fisher Scientific, Pittsburgh, Pa.) three times with PBS/0.1% TWEEN 20™. Peptides were then diluted to 10 μg/ml in PBS and plated at 50-μl/well. After incubation for one hour at room temperature followed by washing, the peptides were incubated with sera diluted in blocker at appropriate concentrations (5% nonfat dry milk) for 2 hours at room temperature. After washing the wells, 50 μl of phosphatase-labeled anti-serum IgG diluted 1:1000 in blocker was added to each well and was allowed to incubate at room temperature for 1 hour. The plates were washed. The 100 μl of PNDP (p-nitrophenylphosphate) substrate, prepared according to the manufacturer's instructions, was added to each well. Results were read at 5, 15 and 60 minutes using a microtiter plate reader (UVmax™, Moelcular Devices, Sunnyvale, Calif.).
(§4) Partially to fully purified colonization factor (40% to 100% pure) was run on SDS-PAGE gel (5-15 μg/lane of 10 comb gel (precast 10 comb, 1 mm thickness, Tris-tricene gel from Novex, San Diego, Calif.), for primary immunization run 9 lanes for each rabbit (45-135 μg CF protein with ½ the amount used in the primary immunization used as a booster). The gel was stained with 0.5% COOMASSIE BLUE™ (BioRad, Richmond, Calif.) in water for 1 hour, then destained with multiple changes of water for 60-90 minutes. The colonization factor bands were excised with a scalpel and the excess gel trimmed. The bands were stored at −20° C. until use.
(§5) After removal from freezer, the gel slices were transferred to a glass tissue homogenizer using a teflon pestle with grooves at the tip. The slices were ground with 0.3 ml phosphate buffered saline (PBS). The drill was run to homogenize the gel for 30 to 45 seconds. (In the instant case, a pestle with a shaft of steel was used which allowed placement of the pestle into the chuck of the hand-held drill.)
(§6) The homogenate was transferred to 16 mm×150 mm test tubes with disposable plastic transfer pipet. The pestle and homogenizer vessel was rinsed repeatedly with PBS and the contents transferred to the 16×150 test tube until a volume of 1.2 ml was obtained.
(§7) The sample obtained above was placed in a vortex mixer and vortexed on high. Freund's adjuvant 1.2 ml was added. (Complete Freund's was used for the primary immunization, while incomplete Freund's was used for the boost.) The composition was vortexed until a thick emulsion of almost a butter consistency was obtained (12-20 minutes).
(§8) A preimmune serum was obtained on all animals, which were then immunized with the 1 ml of the emulsion subcutaneously at 4-6 spots on the shoulders and rump. The animals were boosted three weeks later, then bleed 10 days after the booster shots. […]

[1] = tested on: antibodies raised to the consensus peptide; experiment: ELISA of 8-mer peptides with rabbit antibodies; details: for reactivity of 8-mer peptides with antibodies from the rabbits: rabbit antibodies raised to consensus peptide SEQ ID NO:1, biotin-SGSG-peptide on streptavidin; for interaction of peptides with the antibodies raised to the consensus peptide: rabbit antibodies raised to consensus peptide SEQ ID NO:1
Method: as §1, §2, §3
Antibodies from the rabbits were then tested against the specific 8-mer peptides obtained from SEQ ID NO:1 in the manner disclosed above to determine the binding sites of the antibodies in the sera with the consensus peptide.

Antibody to CS2 = experiment: ELISA of 8-mer peptides (pins) with rabbit serum; details: a listed pin number means recognized
Method: as §1, §2, §3, §4, §5, §6, §7, §8

Antibody to CS4 = experiment: ELISA of 8-mer peptides (pins) with rabbit serum; details: a listed pin number means recognized
Method: as §1, §2, §3, §4, §5, §6, §7, §8

Antibody to CS17 = experiment: ELISA of 8-mer peptides (pins) with rabbit serum; details: a listed pin number means recognized
Method: as §1, §2, §3, §4, §5, §6, §7, §8

Antibody to 0166 upper = experiment: ELISA of 8-mer peptides (pins) with rabbit serum
Method: as §1, §2, §3, §4, §5, §6, §7, §8

Antibody to 0166 lower = experiment: ELISA of 8-mer peptides (pins) with rabbit serum
Method: as §1, §2, §3, §4, §5, §6, §7, §8

[2] = rabbit 1081, a listed pin number means recognized
[3] = rabbit 1082, a listed pin number means recognized
[4] = rabbit 1083, a listed pin number means recognized

## ADGSALPS (listed as Escherichia coli) [compound 20]
Antibody to CS1; Antibody to CS1, rabbit 1089
  pins (8-aa peptide) recognized by serum: 20
Antibody to CS1; Antibody to CS1, rabbit 1090
  pins (8-aa peptide) recognized by serum: 20

## ALPSAVAL (listed as Escherichia coli) [compound 24]
[1]
  reactivity of 8-mer peptides with antibodies from the rabbits: most reactive
Antibody to CS2; Antibody to CS2, rabbit 1077
  pins (8-aa peptide) recognized by serum: 24
Antibody to CS1; Antibody to CS1, rabbit 1090
  pins (8-aa peptide) recognized by serum: 24
Antibody to CS4; Antibody to CS4, rabbit 940
  pins (8-aa peptide) recognized by serum: 24

## ASVDPTID (listed as Escherichia coli) [compound 9]
[1]
  interaction of peptides with the antibodies raised to the consensus peptide: more reliably interactive
  reactivity of 8-mer peptides with antibodies from the rabbits: most reactive
Antibody to CS2; Antibody to CS2, rabbit 1076
  pins (8-aa peptide) recognized by serum: 9
Antibody to CS2; Antibody to CS2, rabbit 1077
  pins (8-aa peptide) recognized by serum: 9
Antibody to CS17; Antibody to CS17, rabbit 1084
  pins (8-aa peptide) recognized by serum: 9
Antibody to CS1; Antibody to CS1, rabbit 1090
  pins (8-aa peptide) recognized by serum: 9
Antibody to 0166 upper; [2]
  pins (8-aa peptide) recognized by serum: 9
Antibody to 0166 lower; [3]
  pins (8-aa peptide) recognized by serum: 9
Antibody to CS4; Antibody to CS4, rabbit 938
  pins (8-aa peptide) recognized by serum: 9

## AVALTYSP (listed as Escherichia coli) [compound 28]
[1]
  interaction of peptides with the antibodies raised to the consensus peptide: more reliably interactive
  reactivity of 8-mer peptides with antibodies from the rabbits: most reactive
Antibody to CS1; Antibody to CS1, rabbit 1089
  pins (8-aa peptide) recognized by serum: 28
Antibody to CS1; Antibody to CS1, rabbit 1090
  pins (8-aa peptide) recognized by serum: 28

## DGSALPSA (listed as Escherichia coli) [compound 21]
Antibody to CS1; Antibody to CS1, rabbit 1089
  pins (8-aa peptide) recognized by serum: 21
Antibody to CS1; Antibody to CS1, rabbit 1090
  pins (8-aa peptide) recognized by serum: 21

## DLLQADGS (listed as Escherichia coli) [compound 16]
Antibody to 0166 upper; [2]
  pins (8-aa peptide) recognized by serum: 16

## DPTIDLLQ (listed as Escherichia coli) [compound 12]
[1]
  interaction of peptides with the antibodies raised to the consensus peptide: more reliably interactive
  reactivity of 8-mer peptides with antibodies from the rabbits: most reactive
Antibody to CS2; Antibody to CS2, rabbit 1076
  pins (8-aa peptide) recognized by serum: 12
Antibody to CS1; Antibody to CS1, rabbit 1089
  pins (8-aa peptide) recognized by serum: 12
Antibody to CS1; Antibody to CS1, rabbit 1090
  pins (8-aa peptide) recognized by serum: 12
Antibody to 0166 upper; rabbit 934, a listed pin number means recognized
  pins (8-aa peptide) recognized by serum: 12
Antibody to 0166 upper; [2]
  pins (8-aa peptide) recognized by serum: 12
Antibody to 0166 lower; [3]
  pins (8-aa peptide) recognized by serum: 12
Antibody to 0166 lower; [4]
  pins (8-aa peptide) recognized by serum: 12
Antibody to CS4; Antibody to CS4, rabbit 938
  pins (8-aa peptide) recognized by serum: 12
Antibody to CS4; Antibody to CS4, rabbit 940
  pins (8-aa peptide) recognized by serum: 12

## EKNITVTA (listed as Escherichia coli) [compound 2]
[1]
  reactivity of 8-mer peptides with antibodies from the rabbits: most reactive
Antibody to CS17; Antibody to CS17, rabbit 1080
  pins (8-aa peptide) recognized by serum: 2
Antibody to 0166 lower; [4]
  pins (8-aa peptide) recognized by serum: 2
Antibody to CS4; Antibody to CS4, rabbit 940
  pins (8-aa peptide) recognized by serum: 2

## GSALPSAV (listed as Escherichia coli) [compound 22]
Antibody to CS1; Antibody to CS1, rabbit 1090
  pins (8-aa peptide) recognized by serum: 22
Antibody to CS4; Antibody to CS4, rabbit 940
  pins (8-aa peptide) recognized by serum: 22

## IDLLQADG (listed as Escherichia coli) [compound 15]
Antibody to 0166 upper; [2]
  pins (8-aa peptide) recognized by serum: 15

## ITVTASVD (listed as Escherichia coli) [compound 5]
[1]
  reactivity of 8-mer peptides with antibodies from the rabbits: most reactive

## KNITVTAS (listed as Escherichia coli) [compound 3]
[1]
  reactivity of 8-mer peptides with antibodies from the rabbits: most reactive
Antibody to CS17; Antibody to CS17, rabbit 1080
  pins (8-aa peptide) recognized by serum: 3
Antibody to CS1; Antibody to CS1, rabbit 1089
  pins (8-aa peptide) recognized by serum: 3
Antibody to 0166 lower; [4]
  pins (8-aa peptide) recognized by serum: 3
Antibody to CS4; Antibody to CS4, rabbit 940
  pins (8-aa peptide) recognized by serum: 3

## LLQADGSA (listed as Escherichia coli) [compound 17]
Antibody to 0166 upper; [2]
  pins (8-aa peptide) recognized by serum: 17
